pIC50: −log10 of the molar value.
Biological target: T1, cytochrome P450 2D6 (Homo sapiens, UniProt P10635)
T1 construct: were incubated with human liver microsomes (0.25 mg/mL protein and 0.075 μM P450); from tissue; host or cells: human liver microsomes
Experiment: inhibition of cytochrome P450 2D6 in human liver microsomes (dextromethorphan to dextrorphan)
Assay type: biochemical
Settings: human liver microsomes 0.25 mg/mL protein, 8 μM dextromethorphan, 1 mM NADPH, 37° C., 20 min; average IC50 with number of tests in parentheses
Description: Following the 20 min incubation, the reaction was quenched by addition of 200 μL acetonitrile containing 0.1 μM buspirone as an internal standard. The samples were then vortex mixed and centrifuged to pellet the protein. The supernantant was transferred, dried under nitrogen flow and reconstituted in mobile phase. A 10 uL aliquot was injected onto a gradient reversed phase HPLC system with a Phenomenex Luna C18 (50×4.6 mm) column. Dextrorphan, formed by the metabolism of dextromethorphan by CYP 2D6, was monitored using tandem MS/MS in the APCl mode with the MRM transition of m/z 258.3>156.6. Remaining-CYP2D6 activity (%) was determined for the samples relative to a vehicle control. The data were analyzed by non-linear regression according to % R=% Rmax[formula](1−(C/(C+IC50))) using WinNonLin (version 4.0.1), where % R is the % remaining CYP 2D6 activity relative to the vehicle control, C is the concentration of the compound of interest, and IC50 is the inhibitory concentration of the compound of interest giving 50% inhibition of maximal % remaining activity. The data are reported as IC50s (μM). If more than one assay was performed for a particular compound, the average IC50 is reported with the number of tests in parentheses.

T1 sequence (P10635 whole entry): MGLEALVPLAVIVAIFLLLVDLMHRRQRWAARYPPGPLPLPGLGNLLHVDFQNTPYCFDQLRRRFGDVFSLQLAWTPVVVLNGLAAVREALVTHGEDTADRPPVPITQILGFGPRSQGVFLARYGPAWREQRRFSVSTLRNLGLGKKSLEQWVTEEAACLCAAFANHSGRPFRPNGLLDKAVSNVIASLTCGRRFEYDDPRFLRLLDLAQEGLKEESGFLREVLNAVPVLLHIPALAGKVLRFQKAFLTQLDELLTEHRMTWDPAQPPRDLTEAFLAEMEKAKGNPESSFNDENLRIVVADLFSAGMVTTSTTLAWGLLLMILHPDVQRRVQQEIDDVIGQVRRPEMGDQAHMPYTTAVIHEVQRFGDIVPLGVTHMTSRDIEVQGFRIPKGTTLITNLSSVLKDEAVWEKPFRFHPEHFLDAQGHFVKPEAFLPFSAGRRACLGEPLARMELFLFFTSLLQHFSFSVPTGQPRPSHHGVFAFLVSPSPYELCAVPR

Compound `Cc1cnc2nc(CC3=C(O)CC(CCc4ccc(C(C)(C)C#N)c(F)c4)(C4CCCC4)OC3=O)nn2c1` (racemic) [Compound 8, 2-[4-(2-{2-cyclopentyl-4-hydroxy-5-[(6-methyl[1,2,4]triazolo[1,5-a]pyrimidin-2-yl)methyl]-6-oxo-3,6-dihydro-2H-pyran-2-yl}ethyl)-2-fluorophenyl]-2-methylpropanenitrile] has a pIC50 of over 7.13.
`Cc1cnc2nc(CC3=C(O)CC(CCc4ccc(C(C)(C)C#N)c(F)c4)(C4CCCC4)OC3=O)nn2c1` (racemic) [Compound 9, 2-[4-(2-{2-cyclopentyl-4-hydroxy-5-[(6-methyl[1,2,4]triazolo[1,5-a]pyrimidin-2-yl)methyl]-6-oxo-3,6-dihydro-2H-pyran-2-yl}ethyl)-2-fluorophenyl]-2-methylpropanenitrile] gave a pIC50 of over 7.13.
`CC(C)(C#N)c1ccc(CCC2(C3CCCC3)CC(O)=C(Cc3nc4ncccn4n3)C(=O)O2)cc1F` (racemic) [Compound 18, 2-(4-{2-[2-cyclopentyl-4-hydroxy-6-oxo-5-([1,2,4]triazolo[1,5-a]pyrimidin-2-ylmethyl)-3,6-dihydro-2H-pyran-2-yl]ethyl}-2-fluorophenyl)-2-methylpropanenitrile] was tested, and the pIC50 was 6.17.
In the case of `N#CC1(c2ccc(CCC3(C4CCCC4)CC(O)=C(Cc4nc5ncccn5n4)C(=O)O3)cc2F)CC1` (racemic) [Compound 25, 1-(4-{2-[2-cyclopentyl-4-hydroxy-6-oxo-5-([1,2,4]triazolo[1,5-a]pyrimidin-2-ylmethyl)-3,6-dihydro-2H-pyran-2-yl]ethyl}-2-fluorophenyl)cyclopropanecarbonitrile], the pIC50 was 5.96.
`N#CC1(c2ccc(CCC3(C4CCCC4)CC(O)=C(Cc4nc5ncccn5n4)C(=O)O3)cc2F)CC1` (racemic) [Compound 26, 1-(4-{2-[2-cyclopentyl-4-hydroxy-6-oxo-5-([1,2,4]triazolo[1,5-a]pyrimidin-2-ylmethyl)-3,6-dihydro-2H-pyran-2-yl]ethyl}-2-fluorophenyl)cyclopropanecarbonitrile] showed a pIC50 of 6.39.
`Cc1cc(C)n2nc(CC3=C(O)CC(CCc4ccc(C5(C#N)CC5)c(F)c4)(C4CCCC4)OC3=O)nc2n1` (racemic) [Compound 27, 1-[4-(2-{2-cyclopentyl-5-[(5,7-dimethyl[1,2,4]triazolo[1,5-a]pyrimidin-2-yl)methyl]-4-hydroxy-6-oxo-3,6-dihydro-2H-pyran-2-yl}ethyl)-2-fluorophenyl]cyclopropanecarbonitrile] showed a pIC50 of 6.52.
With `CC(C)(C#N)c1c(F)cc(CCC2(C3CCCC3)CC(O)=C(Cc3nc4ncc(Cl)cn4n3)C(=O)O2)cc1F` (racemic) [Compound 34] the pIC50 was over 7.13.
Work on `CC(C)(C#N)c1c(F)cc(CCC2(C3CCCC3)CC(O)=C(Cc3nc4ncc(Cl)cn4n3)C(=O)O2)cc1F` (racemic) [Compound 35, 2-[4-(2-{5-[(6-chloro[1,2,4]triazolo[1,5-a]pyrimidin-2-yl)methyl]-2-cyclopentyl-4-hydroxy-6-oxo-3,6-dihydro-2H-pyran-2-yl}ethyl)-2,6-difluorophenyl]-2-methylpropanenitrile] yielded a pIC50 of at least 7.13.
With `Cc1cnc2nc(CC3=C(O)CC(CCc4ccc(C5(C#N)CC5)c(F)c4)(C4CCCC4)OC3=O)nn2c1` (single isomer, unassigned) [Compound 23, 1-[4-(2-{2-cyclopentyl-4-hydroxy-5-[(6-methyl[1,2,4]triazolo[1,5-a]pyrimidin-2-yl)methyl]-6-oxo-3,6-dihydro-2H-pyran-2-yl}ethyl)-2-fluorophenyl]cyclopropanecarbonitrile] the pIC50 was 6.55.
`Cc1cnc2nc(CC3=C(O)CC(CCc4ccc(C5(C#N)CC5)c(F)c4)(C4CCCC4)OC3=O)nn2c1` (single isomer, unassigned) [Compound 24, 1-[4-(2-{2-cyclopentyl-4-hydroxy-5-[(6-methyl[1,2,4]triazolo[1,5-a]pyrimidin-2-yl)methyl]-6-oxo-3,6-dihydro-2H-pyran-2-yl}ethyl)-2-fluorophenyl]cyclopropanecarbonitrile] was tested, and the pIC50 was 5.92.

— patent US20040224960A1, “Pharmaceutical compositions and methods for their use” (Agouron Pharmaceuticals, Inc., priority 2003, published 2004)
